How the values were obtained:
Type in all cases: biochemical
human FXa = target: T1, human FXa (Homo sapiens, UniProt P00742); assay: Measurement of human FXa inhibitory action (chromogenic substrate S-2222); conditions: human FXa 0.019 U/ml, S-2222 0.4 mM, 37° C., pH 7.5
T1 construct: purchased Enzyme Research Laboratories, Inc
Method: In vitro FXa inhibitory activity is measured in accordance with the method of Kettner et al. (Journal of Biological Chemistry, vol. 265, pages 18289 to 18297, 1990). To be more specific, human FXa (product of Enzyme Research Laboratories, Inc., 0.019 U/ml) is mixed with a test compound diluted with dimethylsulfoxide (DMSO) at various concentrations and a synthetic substrate S-2222 (Chromogenix AB, 0.4 mM). The mixtures are incubated at 37° C. in Tris-hydrochloric acid buffer (pH 7.5) while the absorbance at 405 nm is measured continuously. To calculate the FXa inhibitory activity of the test compound, the initial reaction velocity is compared with the value for a control containing no test compound. It should be noted that the FXa inhibitory activity of the test compound is generally indicated as IC50.

human plasma = assay: Measurement of intrinsic coagulation time (APTT) in vitro
Method: Activated partial thromboplastin time (APTT) is measured in the presence of the test compounds diluted at various concentrations. A test compound diluted with DMSO at various concentrations is mixed with human plasma and APTT reagent. The mixture is incubated at 37° C. for 2 minutes; calcium chloride (25 mM) is added to the mixture; and the coagulation time is thereafter measured. It should be noted that the anticoagulant activity of the test compound is described in terms of the concentration required to double the coagulation time for the case where no test compound is added.

trypsin = target: T2, trypsin (Bos taurus, UniProt P00760); assay: Inhibitory activity for trypsin; conditions: FXa versus trypsin
T2 construct: gene PRSS1
T2 sequence (P00760 24-246): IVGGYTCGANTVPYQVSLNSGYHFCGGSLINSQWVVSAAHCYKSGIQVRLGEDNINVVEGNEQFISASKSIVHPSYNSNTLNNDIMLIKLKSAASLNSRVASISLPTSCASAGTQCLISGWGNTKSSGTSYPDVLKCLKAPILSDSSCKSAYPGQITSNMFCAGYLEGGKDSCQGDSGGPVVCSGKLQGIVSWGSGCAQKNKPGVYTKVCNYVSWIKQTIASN

T1 sequence (P00742 235-488 limits assumed): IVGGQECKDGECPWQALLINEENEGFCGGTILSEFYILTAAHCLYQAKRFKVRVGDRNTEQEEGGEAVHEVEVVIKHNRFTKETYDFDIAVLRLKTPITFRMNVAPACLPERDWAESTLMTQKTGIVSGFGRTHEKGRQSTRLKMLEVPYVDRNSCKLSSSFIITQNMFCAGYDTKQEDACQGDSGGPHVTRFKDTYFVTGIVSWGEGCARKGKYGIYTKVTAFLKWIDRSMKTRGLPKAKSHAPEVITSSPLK
T1 sequence (P00742 41-179 partner limits assumed): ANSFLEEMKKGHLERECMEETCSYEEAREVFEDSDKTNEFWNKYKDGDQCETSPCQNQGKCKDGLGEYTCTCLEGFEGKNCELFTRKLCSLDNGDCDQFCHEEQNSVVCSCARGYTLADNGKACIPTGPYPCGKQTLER

SMILES	IC50 (human FXa) [nM]	Concentration required to double coagulation time (human plasma) [µM]	selectivity for trypsin (trypsin)
O=C(O)COCC12CN(S(=O)(=O)c3ccc4cc(Cl)ccc4c3)CC(=O)N1CC1(CCN(c3ccncc3)CC1)O2 (stereo not drawn) [Example 5, 1,4-Diaza-4-(6-chloronaphthalen-2-ylsulfonyl)-6-(carboxymethoxymethyl)-7-oxa-1′-(4-pyridyl)spiro[bicyclo[4.3.0]nonane-8,4′-piperidin]-2-one]	2.9	0.43	–
COCC12CN(S(=O)(=O)c3ccc4cc(Cl)ccc4c3)CC(=O)N1CC1(CCN(c3ccncc3)CC1)O2 (single isomer, unassigned; (-)) [Compound A, (−)-1,4-diaza-4-(6-chloronaphthalen-2-ylsulfonyl)-6-(methoxymethyl)-7-oxa-1′-(4-pyridyl)spiro[bicyclo[4.3.0]nonane-8,4′-piperidin]-2-one]	–	–	remarkably high selectivity
O=C1CN(S(=O)(=O)c2cc3ccc(Cl)cc3s2)CC2OC3(CCN(c4ccncc4)CC3)CN12 (stereo not drawn) [Example 213, 1,4-Diaza-4-(6-chlorobenzo[b]thiophen-2-ylsulfunyl)-7-oxa-1′-(4-pridyl)spiro[bicyclo[4.3.0]nonane-8,4′-piperidin]-2-one]	0.6	–	–
COCC12CN(S(=O)(=O)c3ccc4nc(Cl)ccc4c3)CC(=O)N1CC1(CCN(c3ccncc3)CC1)O2 (stereo not drawn) [Example 770, 1,4-Diaza-4-(2-chloroquinolin-6-ylsulfonyl)-6-(methoxymethyl)-7-oxa-1′-(4-pyridyl)spiro[bicyclo[4.3.0]nonane-8,4′-piperidin]-2-one]	1.8	–	–
O=C1CN(S(=O)(=O)c2ccc3cc(Cl)ccc3c2)CC2(C(=O)O)OC3(CCN(c4ccncc4)CC3)CN12 (stereo not drawn) [Example 50, Ammonium 1,4-Diaza-4-(6-chloronaphthalen-2-ylsulfonyl)-7-oxa-2-oxo-1′-(4-pyridyl)spiro[bicyclo[4.3.0]nonane-8,4′-piperidine]-6-carboxylate]	1.9	–	–

Reference: patent US20040063716A1, “Cholesterol biosynthesis inhibitors containing as the active ingredient tricyclic spiro compounds” (priority 2000, published 2004)
